Laboratory results reported in US10106556B2, “Heterocyclic compound” (TAKEDA PHARMACEUTICAL COMPANY LIMITED, priority 2015, dated 2018).

Biological target: T1, His-hMAGL (recombinant polyhistidine tagged human MAGL protein) (Homo sapiens, UniProt Q99685)
T1 construct: made in house; host or cells: E. coli BL21(DE3)
T1 sequence (Q99685 1-303): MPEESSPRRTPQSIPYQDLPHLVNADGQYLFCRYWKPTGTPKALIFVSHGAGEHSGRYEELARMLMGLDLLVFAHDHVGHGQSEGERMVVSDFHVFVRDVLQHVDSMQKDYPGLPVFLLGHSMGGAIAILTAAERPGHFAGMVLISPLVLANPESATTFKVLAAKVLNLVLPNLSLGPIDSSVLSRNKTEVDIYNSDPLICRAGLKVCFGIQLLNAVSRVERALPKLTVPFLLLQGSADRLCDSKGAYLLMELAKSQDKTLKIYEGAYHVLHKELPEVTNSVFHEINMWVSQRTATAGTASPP
Assay: Measurement of MAGL inhibitory activity (arachidonic acid production from 2-arachidonylglycerol, RapidFire-mass spectrometry)
Type: biochemical
Settings: MAGL inhibitory rate at 10 μM test compound, 60 min preincubation with His-hMAGL, 2-arachidonylglycerol substrate, 10 min reaction at room temperature
Protocol: Furthermore, acetonitrile (50 μL) containing 3 μM arachidonic acid-d8 (Cayman Chemical Company) was added and the mixture was stirred.
The amount of arachidonic acid in the obtained enzyme reaction mixture was calculated by measuring by RapidFire-mass spectrometry and correcting by the amount of arachidonic acid-d8. High Throughput online solid phase extraction was performed using RapidFire 300™ system (Agilent Technologies, Inc.). Samples were loaded on SPE C4 cartridge (Agilent Technologies, Inc.) and desalted with 0.2 (v/v) % acetic acid (Wako Pure Chemical Industries, Ltd.) in ultrapure water/acetonitrile (70/30, v/v) at a flow rate of 1.5 mL/min, eluted at a flow rate of 0.5 mL/min with 0.2 (v/v) % acetic acid dissolved in acetonitrile/ultrapure water (90/10, v/v), and injected into the mass spectrometry part. The injection needle was washed with ultrapure water (500 millisecond) and acetonitrile (500 millisecond) to minimize carry-over. […] The RapidFire300 system was controlled by RapidFire UI software version 3.6 (Agilent Technologies, Inc.).
The mass spectrometry of the resultant product was performed using API4000™ triple quadrupole mass spectrometer (AB SCIEX) equipped with an electrospray ion sauce (TurboIon Spray™) in a negative selected reaction monitoring (SRM) mode. The conditions of SRM are shown below. The parameters of the instrument were optimized as follows: capillary temperature 600° C., ion spray voltage −4.5 kV, collision gas 8, curtain gas 15 psi, ion source gas 1 60 psi, ion source gas 2 60 psi. The mass spectrometer was controlled by Analyst™ software version 1.5.1 (AB SCIEX). The peak area integration was analyzed using RapidFire integrator software version 3.6 (Agilent Technologies, Inc.).
MAGL inhibitory rate (%) was calculated according to the following calculation formula. (1−(arachidonic acid production amount of test compound addition group−arachidonic acid production amount of enzyme−free group)÷(arachidonic acid production amount of test compound-free group−arachidonic acid production amount of enzyme-free group))×100

inhibition at 10 µM | % inhibition (10 μM) (10 µM) | Compound
104% |  | Cc1ccc(OCC2CCN(C(=O)c3ccc4c(c3)NC(=O)CO4)CC2)c(Cl)c1 [Example 36, 6-((4-((2-chloro-4-methylphenoxy)methyl)piperdin-1-yl)carbonyl)-2H-1,4-benzoxazin-3(4H)-one]
101% |  | O=C1COc2ccc(C(=O)N3CCC(C(F)(F)c4ccc(F)cc4)CC3)cc2N1 [Example 355, 6-((4-(difluoro(4-fluorophenyl)methyl)piperidin-1-yl)carbonyl)-2H-1,4-benzoxazin-3(4H)-one]
100% |  | O=C1COc2cc(F)c(C(=O)N3CC(COc4ccc(N5CC(F)C5)cc4Cl)C3)cc2N1 [Example 291, 6-((3-((2-chloro-4-(3-fluoroazetidin-1-yl)phenoxy)methyl)azetidin-1-yl)carbonyl)-7-fluoro-2H-1,4-benzoxazin-3(4H)-one]
100% |  | O=C1COc2ncc(C(=O)N3CCC(COc4ccccc4C(F)(F)F)CC3)cc2N1 [Example 19, 7-((4-((2-(trifluoromethyl)phenoxy)methyl)piperidin-1-yl)carbonyl)-1H-pyrido [2,3-b][1,4]oxazin-2(3H)-one]
102% |  | O=C1COc2cc(F)c(C(=O)N3CC(COc4ccc(Cl)cc4-c4ccccn4)C3)cc2N1 [Example 189, 6-((3-((4-chloro-2-(pyridin-2-yl)phenoxy)methyl)azetidin-1-yl)carbonyl)-7-fluoro-2H-1,4-benzoxazin-3(4H)-one]
98% |  | O=C1COc2ccc(C(=O)N3CC(OCc4ccccc4)C3)cc2N1 [Example 326, 6-((3-(benzyloxy)azetidin-1-yl)carbonyl)-2H-1,4-benzoxazin-3(4H)-one]
98% |  | O=C1COc2cc(F)c(C(=O)N3CC(COc4ccccc4C4CCCC4)C3)cc2N1 [Example 166, 6-((3-((2-cyclopentylphenoxy)methyl)azetidin-1-yl)carbonyl)-7-fluoro-2H-1,4-benzoxazin-3(4H)-one]
97% |  | Cc1ccnc(-c2ccc(OCC3CN(C(=O)c4cc5c(cc4F)OCC(=O)N5)C3)c(F)c2)c1 [Example 276]
105% |  | O=C1COc2cc(F)c(C(=O)N3CC(COc4ccc(F)cc4Cl)C3)cc2N1 [Example 77, 6-((3-((2-chloro-4-fluorophenoxy)methyl)azetidin-1-yl)carbonyl)-7-fluoro-2H-1,4-benzoxazin-3(4H)-one]
100% |  | N#Cc1ccc(OCC2CN(C(=O)c3cc4c(cc3F)OCC(=O)N4)C2)cc1Cl [Example 138, 2-chloro-4-((1-((7-fluoro-3-oxo-3,4-dihydro-2H-1,4-benzoxazin-6-yl)carbonyl)azetidin-3-yl)methoxy)benzonitrile]
92% |  | O=C1COc2cc(F)c(C(=O)N3CC(COc4cccc5nccnc45)C3)cc2N1 [Example 139, 7-fluoro-6-((3-((quinoxalin-5-yloxy)methyl)azetidin-1-yl)carbonyl)-2H-1,4-benzoxazin-3(4H)-one]
101% |  | O=C1COc2cc(F)c(C(=O)N3CC(COc4cnc5c(c4)CCCO5)C3)cc2N1 [Example 279, 6-((3-((3,4-dihydro-2H-pyrano[2,3-b]pyridin-6-yloxy)methyl)azetidin-1-yl)carbonyl)-7-fluoro-2H-1,4-benzoxazin-3(4H)-one]
99% |  | Cc1ccncc1-c1ccc(OCC2CN(C(=O)c3cc4c(cc3F)OCC(=O)N4)C2)c(F)c1 [Example 237, 7-fluoro-6-((3-((2-fluoro-4-(4-methylpyridin-3-yl)phenoxy)methyl)azetidin-1-yl)carbonyl)-2H-1,4-benzoxazin-3(4H)-one]
98% |  | Cc1ccc(OCC2CCN(C(=O)c3ccc4c(c3)NC(=O)CO4)CC2)c(C)c1 [Example 35, 6-((4-((2,4-dimethylphenoxy)methyl)piperidin-1-yl)carbonyl)-2H-1,4-benzoxazin-3(4H)-one]
101% |  | Cc1ccc(COC2CN(C(=O)c3cc4c(cc3F)OCC(=O)N4)C2)c(F)c1 [Example 350, 7-fluoro-6-((3-((2-fluoro-4-methylbenzyl)oxy)azetidin-1-yl)carbonyl)-2H-1,4-benzoxazin-3(4H)-one]
97% |  | Cc1ccc(-c2ccc(OCC3CN(C(=O)c4cc5c(cc4F)OCC(=O)N5)C3)c(F)c2)cn1 [Example 263, 7-fluoro-6-((3-((2-fluoro-4-(6-methylpyridin-3-yl)phenoxy)methyl)azetidin-1-yl)carbonyl)-2H-1,4-benzoxazin-3(4H)-one]
98% |  | O=C1COc2ccc(C(=O)N3CCC(COc4cccc(OC(F)(F)F)c4)CC3)cc2N1 [Example 54, 6-((4-((3-(trifluoromethoxy)phenoxy)methyl)piperidin-1-yl)carbonyl)-2H-1,4-benzoxazin-3(4H)-one]
101% |  | O=C1COc2ncc(C(=O)N3CCC(COc4ccc(Cl)cc4Cl)CC3)cc2N1 [Example 17, 7-((4-((2,4-dichlorophenoxy)methyl)piperidin-1-yl)carbonyl)-1H-pyrido[2,3-b][1,4]oxazin-2 (3H)-one]
99% |  | O=C1COc2cc(F)c(C(=O)N3CC(OCc4ccc(C(F)(F)F)c(F)c4)C3)cc2N1 [Example 351, 7-fluoro-6-((3-((3-fluoro-4-(trifluoromethyl)benzyl)oxy)azetidin-1-yl)carbonyl)-2H-1,4-benzoxazin-3(4H)-one]
103% |  | O=C1COc2cc(F)c(C(=O)N3CC(COc4ccc(Cl)cc4-c4ccc(Cl)nc4)C3)cc2N1 [Example 205, 6-((3-((4-chloro-2-(6-chloropyridin-3-yl)phenoxy)methyl)azetidin-1-yl)carbonyl)-7-fluoro-2H-1,4-benzoxazin-3(4H)-one]
98% |  | Cc1ncccc1-c1ccc(OCC2CN(C(=O)c3cc4c(cc3F)OCC(=O)N4)C2)c(F)c1 [Example 262, 7-fluoro-6-((3-((2-fluoro-4-(2-methylpyridin-3-yl)phenoxy)methyl)azetidin-1-yl)carbonyl)-2H-1,4-benzoxazin-3(4H)-one]
98% |  | O=C1COc2cc(F)c(C(=O)N3CC(COc4ccc(-c5ccc(C(F)(F)F)nc5)cc4F)C3)cc2N1 [Example 256, 7-fluoro-6-((3-((2-fluoro-4-(6-(trifluoromethyl)pyridin-3-yl)phenoxy)methyl)azetidin-1-yl)carbonyl)-2H-1,4-benzoxazin-3(4H)-one]
100% |  | O=C1COc2cc(F)c(C(=O)N3CC(COc4ccc(-c5cncc(Cl)c5)cc4F)C3)cc2N1 [Example 235, 6-((3-((4-(5-chloropyridin-3-yl)-2-fluorophenoxy)methyl)azetidin-1-yl)carbonyl)-7-fluoro-2H-1,4-benzoxazin-3(4H)-one]
98% |  | O=C1COc2cc(F)c(C(=O)N3CC(COc4c(F)cccc4Cl)C3)cc2N1 [Example 136, 6-((3-((2-chloro-6-fluorophenoxy)methyl)azetidin-1-yl)carbonyl)-7-fluoro-2H-1,4-benzoxazin-3(4H)-one]
100% |  | O=C1COc2cc(F)c(C(=O)N3CC(OCc4cccc(F)c4)C3)cc2N1 [Example 331, 7-fluoro-6-((3-((3-fluorobenzyl)oxy)azetidin-1-yl)carbonyl)-2H-1,4-benzoxazin-3(4H)-one]
 | 99% | CC(Oc1cccc(F)c1F)C1CN(C(=O)c2cc3c(cc2F)OCC(=O)N3)C1 (centres unmarked) [Example 310, 6-((3-(1-(2,3-difluorophenoxy)ethyl)azetidin-1-yl)carbonyl)-7-fluoro-2H-1,4-benzoxazin-3(4H)-one]
98% |  | O=C1COc2cc(F)c(C(=O)N3CCC(COc4ccccc4)CC3)cc2N1 [Example 285, 7-fluoro-6-((4-(phenoxymethyl)piperidin-1-yl)carbonyl)-2H-1,4-benzoxazin-3(4H)-one]
101% |  | Cc1cc(Cl)ccc1OCC1CN(C(=O)c2cc3c(cc2F)OCC(=O)N3)C1 [Example 226, 6-((3-((4-chloro-2-methylphenoxy)methyl)azetidin-1-yl)carbonyl)-7-fluoro-2H-1,4-benzoxazin-3(4H)-one]
100% |  | O=C1COc2cc(F)c(C(=O)N3CC(COc4ccc5ccncc5c4)C3)cc2N1 [Example 172, 7-fluoro-6-((3-((isoquinolin-7-yloxy)methyl)azetidin-1-yl)carbonyl)-2H-1,4-benzoxazin-3(4H)-one]
